# Measurements: ChEMBL document CHEMBL5050859, “Gpx4 inhibitors, pharmaceutical compositions thereof, and their use for treating gpx4-mediated diseases” (2021)
# pEC50: −log10 of the molar value.
# Tested on: Huh-7
# Experiment: Antiproliferative activity against human Huh-7 cells after 24 hrs by Cell Titer Glo assay
# Assay type: functional, cell-based
# Settings: Huh-7, 24 h
row,Compound,pEC50
1,C=CC(=O)N(Cc1cccc(O)c1)C1(C(=O)NCc2ccccc2)CCOCC1,< 5.00
2,C#CC(=O)N(CCc1ccccc1)C1(C(=O)NCc2ccccc2)CCCC(C(=O)O)C1 (stereo not given),< 5.00
3,Cn1ncc2cc(N(C(=O)CO)C3(C(=O)NCc4ccccc4)CCOCC3)ccc21,< 5.00
4,C=C(F)C(=O)N(c1ccc(OC)c(Cl)c1)C(C(=O)NCc1ccccc1)c1cccc(N)c1 (stereo not given),< 5.00
5,Nc1ccc(N(C(=O)CCl)C(C(=O)NCCc2ccccc2)c2cccs2)cc1 (stereo not given),5.70
6,C=CC(=O)N(c1cccc(Cl)c1)C1(C(=O)NCc2ccccc2)CCOCC1,< 5.00
7,C=C(F)C(=O)N(c1ccc2c(cnn2C)c1)C1(C(=O)NCc2ccccc2)CCOCC1,< 5.00
8,Cn1ncc2cc(N(C(=O)C3CO3)C3(C(=O)NCc4ccccc4)CCOCC3)ccc21 (stereo not given),< 5.00
9,CC(=O)Nc1cccc(N(C(=O)CCl)C(C(=O)NCCc2ccccc2)c2ccc([N+](=O)[O-])cc2)c1 (stereo not given),5.70
10,CC(C)(C)NC(=O)C(c1ccc([N+](=O)[O-])cc1)N(C(=O)CCl)c1ccc(Cl)cc1 (stereo not given),5.70
11,CN(C)C/C=C/C(=O)N(c1ccc2c(cnn2C)c1)C1(C(=O)NCc2ccccc2)CCOCC1,< 5.00
12,O=C(NCCc1ccccc1)C(c1ccc([N+](=O)[O-])cc1)N(C(=O)CCl)c1cccc(O)c1 (stereo not given),5.70
13,CC(Cl)C(=O)N(c1ccc2c(cnn2C)c1)C1(C(=O)NCc2ccccc2)CCOCC1 (stereo not given),< 5.00
14,O=C(CCl)N(c1ccc2c(c1)OCO2)C1(C(=O)NCc2ccccc2)CCOCC1,5.70
15,CC(C)N(C(=O)CCl)C(C(=O)NCCc1ccccc1)c1cccs1 (stereo not given),< 5.00
16,Cn1ncc2cc(N(C(=O)C(F)F)C3(C(=O)NCc4ccccc4)CCOCC3)ccc21,< 5.00
17,O=C(NCCc1ccccc1)C(c1ccc([N+](=O)[O-])cc1)N(Cc1cccs1)C(=O)CCl (stereo not given),5.70
18,C=CC(=O)N(c1ccc2c(cnn2C)c1)C1(C(=O)NCc2ccccc2)CCOCC1,< 5.00
19,C#CC(=O)N(c1cccc(Cl)c1)C1(C(=O)NCC(=O)NCCO)CCOCC1,5.70
20,C=CC(=O)N(C1CCC1)C1(C(=O)NCc2ccccc2)CCOCC1,< 5.00
21,C[Si](C)(C)C#CC(=O)N(c1cccc(Cl)c1)C1(C(=O)NCc2cccc(Cl)c2)CCOCC1,≥ 7.00
22,C=CC(=O)N(CCc1ccccc1)C1(C(=O)NCc2ccccc2)CCOCC1,< 5.00
23,CC(=O)N(c1ccc2c(cnn2C)c1)C1(C(=O)NCc2ccccc2)CCCOC1 (stereo not given),< 5.00
24,C#CC(=O)N(c1cccc(Cl)c1)C1(C(=O)NCc2ccccc2)CCCC(O)C1 (stereo not given),5.70
25,C#CC(=O)N(c1cccc(Cl)c1)C1(C(=O)NCC(=O)N2CCCC(O)C2)CCOCC1 (stereo not given),5.70
26,C=CC(=O)N(c1ccc(OC)c(Cl)c1)C(C(=O)NCc1ccccc1)c1cccc(N)c1 (stereo not given),< 5.00
27,C#CC(=O)N(c1cccc(Cl)c1)C1(C(=O)NCC(=O)O)CCOCC1,< 5.00
28,C#CC(=O)N(Cc1cccc(O)c1)C1(C(=O)NCc2ccccc2)CCCC(C(=O)O)C1 (stereo not given),< 5.00

# More lines, now with the values ahead:
row,pEC50,Compound
1,6.30,COc1ccc(N(C(=O)CCl)C(C(=O)NCc2ccccc2)c2cccs2)cc1Cl (stereo not given)
2,6.30,C#CC(=O)N(c1ccc(OC)cc1OC)C(C(=O)NCC(=O)OCC)c1cccs1 (stereo not given)
3,6.30,C#CC(=O)N(C1CCC1)C1(C(=O)NCc2ccccc2)CCCC(C(=O)OC)C1 (stereo not given)
4,5.70,Nc1cccc(N(C(=O)CCl)C(C(=O)NCCc2ccccc2)c2cccs2)c1 (stereo not given)
5,7.00,COc1ccc(N(C(=O)CCl)C2(C(=O)NCc3ccccc3)CCOCC2)cc1Cl
6,≥ 7.00,C#CC(=O)N(c1ccc2c(cnn2C)c1)C1(C(=O)NCc2ccccc2)CCCC(C(=O)OC)C1 (stereo not given)
7,≥ 7.00,C#CC(=O)N(c1ccc2c(cnn2C)c1)C1(C(=O)NCc2ccccc2)CCCOC1 (stereo not given)
8,5.70,O=C(NCCc1ccccc1)C(c1ccc([N+](=O)[O-])cc1)N(Cc1ccccc1)C(=O)CCl (stereo not given)
9,7.00,C#CC(=O)N(c1cccc(Cl)c1)C1(C(=O)NCC(=O)NCc2ccccc2O)CCOCC1
10,7.00,C#CC(=O)N(c1cccc(Cl)c1)C1(C(=O)NCC(=O)Nc2ccccc2)CCOCC1
11,7.00,O=C(NCCc1ccccc1)C(c1ccc([N+](=O)[O-])cc1)N(C(=O)CCl)c1cccc(Cl)c1 (stereo not given)
12,7.00,C#CC(=O)N(c1cccc(Cl)c1)C1(C(=O)NCC(=O)NCc2ccccc2Cl)CCOCC1
13,7.00,O=C(CCl)N(c1cccc2nsnc12)C1(C(=O)NCc2ccccc2)CCOCC1
14,5.70,C#CC(=O)N(c1cccc(Cl)c1)C1(C(=O)NCC(=O)N2CCCC(CO)C2)CCOCC1 (stereo not given)
15,7.00,COc1cccc(N(C(=O)CCl)C(C(=O)NCCc2ccccc2)c2ccc([N+](=O)[O-])cc2)c1 (stereo not given)
16,≥ 7.00,C#CC(=O)N(c1cccc(Cl)c1)C(C(=O)NCC1CCOCC1)c1ccccc1 (stereo not given)
17,≥ 7.00,C#CC(=O)N(c1cccc(Cl)c1)C(C(=O)NCC1COC1)c1ccccc1 (stereo not given)
18,7.00,COc1ccc(N(C(=O)CCl)C2(C(=O)NCCc3ccccc3)CCC(F)(F)CC2)cc1Cl
19,7.00,COC(=O)c1cccc(N(C(=O)CCl)C(C(=O)NCCc2ccccc2)c2ccc([N+](=O)[O-])cc2)c1 (stereo not given)
20,7.00,COc1ccc(N(C(=O)CCl)C(C(=O)NCCc2ccccc2)c2ccc(N)cc2)cc1Cl (stereo not given)
21,≥ 7.00,C#CC(=O)N(c1cccc(Cl)c1)C1(C(=O)NCc2ccccc2)CCC(=O)CC1

row,pEC50,Compound
1,6.30,O=C(CCl)N(c1cccc2nsnc12)C1(C(=O)NCCc2ccccc2)CCOCC1
2,7.00,C#CC(=O)N(c1cccc(Cl)c1)C1(C(=O)NCC(=O)NCc2ccccc2C#N)CCOCC1
3,6.30,C#CC(=O)N(c1cccc(Cl)c1)C1(C(=O)NCC(=O)OCC)CCOCC1
4,≥ 7.00,C#CC(=O)N(c1cccc(Cl)c1)C1(C(=O)NCc2ccccc2)CCCC(C(=O)OC)C1 (stereo not given)
5,7.00,COc1ccc(N(C(=O)CCl)C(C(=O)NCCc2ccccc2)c2cccc(N)c2)cc1Cl (stereo not given)
6,6.30,COc1ccc(N(C(=O)CCl)C(C(=O)NCCc2ccccc2)c2ccc(NC(=O)CO)cc2)cc1Cl (stereo not given)
7,7.00,C#CC(=O)N(Cc1cccc(O)c1)C1(C(=O)NCc2ccccc2)CCCC(C(=O)OC)C1 (stereo not given)
8,≥ 7.00,C#CC(=O)N(c1cccc(Cl)c1)C(C(=O)NCC1CC1)c1ccccc1 (stereo not given)
9,7.00,C#CC(=O)N(c1cccc(Cl)c1)C1(C(=O)NCC(=O)NCc2ccccc2)CCOCC1
10,≥ 7.00,COc1ccc(N(C(=O)CCl)C2(C(=O)NCc3ccccc3)CCC(F)(F)CC2)cc1Cl
11,≥ 7.00,C#CC(=O)N(c1cccc(Cl)c1)C1(C(=O)NCc2ccccc2)CCCOC1 (stereo not given)
12,≥ 7.00,C#CC(=O)N(c1cccc(Cl)c1)C(C(=O)NCc1ccccc1C#N)c1ccccc1 (stereo not given)
13,≥ 7.00,C#CC(=O)N(c1cccc(Cl)c1)C1(C(=O)NCc2ccccc2)CCCC(=O)C1 (stereo not given)
14,6.30,Cn1ncc2cc(N(C(=O)CCl)C3(C(=O)NCCc4ccccc4)CCOCC3)ccc21
15,≥ 7.00,COc1ccc(N(C(=O)CCl)C2(C(=O)NCCc3ccccc3)CCOCC2)cc1Cl
16,6.30,COc1ccc(N(C(=O)CCl)C(C(=O)NC(C)(C)C)c2cccs2)cc1Cl (stereo not given)
17,≥ 7.00,C#CC(=O)N(c1cccc(Cl)c1)C1(C(=O)NCc2cccc(Cl)c2)CCOCC1
18,6.30,Nc1ccc(C(C(=O)NCCc2ccccc2)N(C(=O)CCl)c2cccc(Cl)c2)cc1 (stereo not given)
19,6.30,Cn1ncc2cc(N(C(=O)CCl)C3(C(=O)NCc4ccccc4)CCOCC3)ccc21
20,6.30,COc1ccc(N(C(=O)CCl)C(C)C(=O)NCCc2ccccc2)cc1Cl (stereo not given)
21,7.00,C#CC(=O)N(c1cccc(Cl)c1)C1(C(=O)NCC(=O)N2CCCC(C(=O)OC)C2)CCOCC1 (stereo not given)
